The text below walks through data of PubChem BioAssay AID608 (Sanford-Burnham Center for Chemical Genomics, 2007).

Calls of active or inactive are those of the source. The rule behind the calls is not given here.

Chain of Peptidyl-prolyl cis-trans isomerase FKBP1A (Homo sapiens) (P62942 whole entry, looked up): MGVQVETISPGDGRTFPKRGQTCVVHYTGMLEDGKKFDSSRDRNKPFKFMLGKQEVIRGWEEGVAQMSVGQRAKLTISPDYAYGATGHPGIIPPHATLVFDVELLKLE

This test addresses Peptidyl-prolyl cis-trans isomerase FKBP1A (Homo sapiens) (UniProt P62942). Description: FKBP12 binders, biophysical, NMR detection (AID 608). As to conditions: NMR binding, purified FKBP12.
For orientation: Kd means the concentration at which binding is half-saturated. Turning to `Fc1cccc(Cl)c1CN1CCCNCC1`, the Kd is > 4 mM (inactive).
In the case of `C[C@@H]1O[C@@H](O[C@H]2[C@H](Oc3cc(O)c4c(=O)cc(-c5ccc(O)cc5)oc4c3)O[C@H](CO)[C@@H](O)[C@@H]2O)[C@H](O)[C@H](O)[C@H]1O`, the Kd is > 4 mM (inactive).
The entry for `CCCCNS(=O)(=O)c1ccc(OCC(=O)N2CCOCC2)cc1` is “inactive”.
For `Cc1nnc(SCC(=O)N2CCc3ccccc32)s1`, the Kd was > 4 mM (inactive).
For the compound `O=c1/c(=C/c2cccs2)sc2ncnn12`, the Kd was > 4 mM (inactive).
The figure for `O=C(Nc1ccc(N2CCOCC2)cc1)C1CC1` is > 4 mM (inactive); for `COc1ccc(C)cc1-n1c(-c2ccncc2)n[nH]c1=S` it is > 4 mM (inactive).
On to `O=S(=O)(N1CCOCC1)n1cnc2ccccc21`, for which the Kd entry was “inactive”.
For `COc1c2ccoc2cc2oc(=O)ccc12`, the Kd is > 4 mM (inactive).
`O=C(OCc1c(F)cccc1Cl)c1cnccn1`: the Kd was > 4 mM (inactive).
As for `c1ccc(Cn2cccc2)nc1`, the Kd was > 4 mM (inactive).
As to `c1csc(-c2nnc3ccccn23)c1`, the Kd was > 4 mM (inactive).
In the case of `Cc1ccn(S(=O)(=O)c2ccc(C(C)(C)C)cc2)n1`, the Kd was > 4 mM (inactive).
On to `CC1=C2[C@H]3OC(=O)[C@@H](C)[C@@H]3CC[C@@]2(C)C=CC1=O`, for which the Kd is > 4 mM (inactive).
`COc1cccc2c(=O)n(CC(N)=O)ccc12`: the Kd was > 4 mM (inactive).
For `CN1CCN(C(=O)C2CCCNC2)CC1` (configuration not stated), the Kd is > 4 mM (inactive).
The figure for `CCN1CCn2c1nc(N1CCOCC1)nc2=O` is > 4 mM (inactive); for `Nc1cccc(NC(=O)c2ccco2)c1` it is > 4 mM (inactive).
In the case of `NC(=O)c1cccc(N2C(=O)C=CC2=O)c1`, the Kd is > 4 mM (inactive).
`NC(=O)CSc1nnc2ccc(-c3ccccn3)nn12`: the Kd is > 4 mM (inactive).
The figure for `COc1nc(C)ccc1-c1noc(-c2ccncc2)n1` is > 4 mM (inactive); for `CCn1c(-c2c[nH]c3ccccc23)n[nH]c1=S` it is > 4 mM (inactive).
The figure for `Oc1ccc(C2SCCS2)cc1` is > 4 mM (inactive); for `CCn1nccc1C(=O)Nc1ccc(Cl)cc1Cl` it is > 4 mM (inactive).
As to `CC(=O)Nc1nnc(-c2ccccn2)o1`, the Kd is > 4 mM (inactive).
The figure for `Cc1ccc(N2C(=O)CC(Sc3ncn[nH]3)C2=O)cc1` (configuration not stated) is > 4 mM (inactive); for `S=c1[nH]ncn1-c1ccccc1` it is > 4 mM (inactive); for `O=C(O)C1=C[C@@H](O)[C@@H](O)[C@H](O)C1` it is > 4 mM (inactive).
Consider `COC(=O)N1CCN(c2ccc(C(C)=O)cc2)CC1`, for which the Kd was > 4 mM (inactive).
Take `O=C(O)CSCc1ccc(Cl)cc1`: the Kd is > 4 mM (inactive).
For the compound `CC(=O)CC(=O)N1C(O)CC[N+]1(C)C` (configuration not stated), the Kd is > 4 mM (inactive).
`c1ccc(SCc2nc(-c3ccccn3)no2)cc1`: the Kd was > 4 mM (inactive).
As to `Cc1cc(=O)c2ccccc2n1CC(N)=O`, the Kd was > 4 mM (inactive).
The figure for `COc1ccc2c(c1)O[C@@H]1COc3cc(OC)c(OC)cc3[C@@H]1C2=O` is > 4 mM (inactive).
For the compound `OCC1COc2ccccc2C1` (configuration not stated), the Kd was > 4 mM (inactive).
`O=C(O)CSCc1c(F)cccc1Cl`: the Kd was > 4 mM (inactive).
For `O=C(O)C12CC3CC(CC(O)(C3)C1)C2`, the Kd is > 4 mM (inactive).
With `CC(C)c1ccc(S(=O)(=O)CC(=O)N2CCOCC2C(=O)OCCCc2cccnc2)cc1` (configuration not stated), the Kd result is “inactive”.
In the case of `O=C(NC(=S)NC1CCSC1=O)c1ccco1` (configuration not stated), the Kd is > 4 mM (inactive).
Take `c1ccc(CCN2CCN(CCc3ccccn3)CC2)nc1`: the Kd was > 4 mM (inactive).
Consider `CCn1c(C)c(C(C)=O)c(N2CCN(C)CC2)nc1=S`, for which the Kd is > 4 mM (inactive).
Consider `COc1c(O)cc2oc3cc(O)c(CC=C(C)C)c(O)c3c(=O)c2c1CC=C(C)C`, for which the Kd is > 4 mM (inactive).
`Cc1ccc(-n2ncc(C#N)c2/N=C/N(C)C)cc1`: the Kd is > 4 mM (inactive).
On to `Nc1cc(=O)[nH]c(SCC(=O)NC2CCCCC2)n1`, for which the Kd is > 4 mM (inactive).
Take `CC(=O)Nc1c(C#N)c(C(C)(C)C)cn1C`: the Kd was > 4 mM (inactive).
The figure for `COc1cc(O)c2c(c1)C(=O)c1cc(C)cc(O)c1C2=O` is > 4 mM (inactive); for `COc1cc(OC)c2c(=O)c(OC)c(-c3ccc(OC)c(OC)c3)oc2c1` it is > 4 mM (inactive).
For the compound `CCOc1ccc(-c2c(=O)n(O)c3ccccc3[n+]2[O-])cc1`, the Kd was > 4 mM (inactive).
As to `Nc1nc2n(c1C(=O)c1ccccc1)CCC2`, the Kd is > 4 mM (inactive).
`O=C(O)c1ccc2nsnc2c1`: the Kd is > 4 mM (inactive).
For the compound `Cc1cc(C)cc(OC(=O)N2CCOCC2)c1`, the Kd was > 4 mM (inactive).
With `CCCCCC(=O)Cc1cc(O)cc(O)c1C(=O)Oc1cc(CC(=O)CCCCC)c(C(=O)O)c(OC)c1`, the Kd is > 4 mM (inactive).
The figure for `Nc1ccc(OCc2ccccc2)cc1` is > 4 mM (inactive).
The figure for `Fc1ccc2onc(C3CCNCC3)c2c1` is > 4 mM (inactive).
In the case of `COc1ccc2c3c1O[C@H]1C[C@@H](O)C=C[C@@]31CCN(C)C2`, the Kd is > 4 mM (inactive).
The figure for `Nc1ccc(O)cn1` is > 4 mM (inactive).
For `COc1cccc(/C=C2/SC(N)=NC2=O)c1`, the Kd was > 4 mM (inactive).
The figure for `OCc1ccc(N2CCOCC2)cc1` is > 4 mM (inactive); for `NC(=O)c1cc(Cl)c(C(N)=O)cc1Cl` it is > 4 mM (inactive); for `CC(=O)Nc1ccc(Cl)c(C(N)=O)c1` it is > 4 mM (inactive).
As for `CNC(=S)N1CCN(C(=O)c2ccco2)CC1`, the Kd was > 4 mM (inactive).
`N[C@@H](Cc1cc(I)c(Oc2cc(I)c(O)c(I)c2)c(I)c1)C(=O)O`: the Kd is > 4 mM (inactive).
For the compound `Cc1ccc(SCC(=O)N2CC(C)OC(C)C2)cc1` (configuration not stated), the Kd entry is “inactive”.
The figure for `COC(=O)Cc1csc(N)n1` is > 4 mM (inactive); for `O=C(NCc1ccco1)c1ccc(Br)s1` it is > 4 mM (inactive); for `c1cnc(N2CCSCC2)nc1` it is > 4 mM (inactive).
As for `c1ccc(Cc2nnc3sc(-c4ccccn4)nn23)cc1`, the Kd is > 4 mM (inactive).
With `CNC(=S)Nc1ccc2c(c1)OCO2`, the Kd was > 4 mM (inactive).
The figure for `CC(=O)Nc1ccc2c(c1)C(=O)N(C1CCCCC1)C2=O` is > 4 mM (inactive); for `Cc1cc(C(=O)Nc2sc(C)c(C)c2C#N)no1` it is > 4 mM (inactive).
Consider `OCCNc1ccccn1`, for which the Kd is > 4 mM (inactive).
Regarding `CN(C)S(=O)(=O)Nc1ccc(Br)cc1F`, the Kd is > 4 mM (inactive).
Regarding `Cc1onc(-c2ccccc2)c1C(=O)Nc1ccncc1`, the Kd is > 4 mM (inactive).
Take `O=C1Nc2ccccc2C1C1(O)C(=O)Nc2ccc(F)cc21` (configuration not stated): the Kd is > 4 mM (inactive).
The figure for `Cc1nnc(N2CCc3ccccc3C2)[nH]c1=O` is > 4 mM (inactive); for `NCc1cccc2c1OCCCO2` it is > 4 mM (inactive); for `COc1ccc(-c2oc3cc(O[C@H]4O[C@H](CO)[C@@H](O)[C@H](O)[C@H]4O)c(OC)c(O)c3c(=O)c2OC)cc1O` it is > 4 mM (inactive).
For the compound `CC(C)(C)C(=O)N1CCCC1C(=O)O` (configuration not stated), the Kd is > 4 mM (inactive).
Regarding `CC(=O)c1cc(-c2nc3ccccc3n2C)n(C)c1`, the Kd was > 4 mM (inactive).
Turning to `COc1cc(OC)c2c(=O)c(-c3ccc4c(c3)OCO4)coc2c1`, the Kd was > 4 mM (inactive).
With `Nc1nc(SCc2ccc3c(c2)OCCO3)n[nH]1`, the Kd was > 4 mM (inactive).
For `Cn1nnc2cc(CO)ccc21`, the Kd is > 4 mM (inactive).
Turning to `NC(=O)C1CCN(c2ncnc(N)c2[N+](=O)[O-])CC1`, the Kd was > 4 mM (inactive).
`CC1(C)C(=O)C=C[C@@]2(C)C1=C(O)C(=O)[C@]1(C)C2CC[C@@]2(C)[C@H](c3ccoc3)C[C@H]3O[C@]321` (some centres not stated): the Kd was > 4 mM (inactive).
Take `Cc1cc(C)n2c(SCc3cccs3)nnc2n1`: the Kd is > 4 mM (inactive).
Consider `O=C1CSC(=Nc2cccc(C(F)(F)F)c2)N1`, for which the Kd is > 4 mM (inactive).
`CC(=O)NC1(NC(C)=O)CCN(C)CC1`: the Kd was > 4 mM (inactive).
The figure for `CC(=O)N(C)Cc1nc2ccccc2n1C` is > 4 mM (inactive); for `COc1c(C)c2c(c(O)c1C/C=C(\C)CCC(=O)O)C(=O)OC2` it is > 4 mM (inactive).
Regarding `Cc1c(C)[n+]([O-])c(-c2ccc([N+](=O)[O-])cc2)n1O`, the Kd is > 4 mM (inactive).
Regarding `CN1CCN(C(=O)Nc2cccc3ccccc23)CC1`, the Kd is > 4 mM (inactive).
`COc1ccc(C(N)=O)cc1NC(C)=O`: the Kd was > 4 mM (inactive).
As for `CC(=O)Nc1cc(C(F)(F)F)ccc1N1CCOCC1`, the Kd is > 4 mM (inactive).
As to `O=S(=O)(O)c1cc[n+]([O-])cc1`, the Kd was > 4 mM (inactive).
Consider `Cc1n[nH]c(=S)[nH]c1=O`, for which the Kd is > 4 mM (inactive).
In the case of `N#Cc1cnn2c(C(F)(F)F)cc(C(F)(F)F)nc12`, the Kd was > 4 mM (inactive).
Take `O=C1CNCc2[nH]c3ccccc3c2N1c1ccccc1`: the Kd is > 4 mM (inactive).
As for `COC(=O)CSc1n[nH]c(N)n1`, the Kd is > 4 mM (inactive).
`CC(C)CCCC(C)C1CCC2C3C[C@@H](O)[C@@]4(O)C[C@@H](O)CC[C@]4(C)C3CC[C@]12C` (some centres not stated): the Kd was > 4 mM (inactive).
On to `COc1c2c(cc3occ(-c4ccc5c(c4)OCO5)c(=O)c13)OC(C)(C)C=C2`, for which the Kd is > 4 mM (inactive).
For the compound `COc1cc(O)c(C(C)=O)c(OC)c1`, the Kd was > 4 mM (inactive).
Turning to `NCc1ccc(-c2ccccn2)s1`, the Kd is > 4 mM (inactive).
